Key:
GFP-A431 = assay: MTT antiproliferative/cytotoxicity assay, A431; assay type: cell-based, human; conditions: Homo sapiens, A-431, 48 h, non-melanoma, MTT, 48 h; read-out: IC50 GFP-A431
Experimental: Human-derived GFP-expressing melanoma A375 and epidermoid carcinoma A431 cell lines were purchased from Angio-Proteomie (Boston, MA). Human melanoma carcinoma SK-MEL-28 and human immortalised keratinocytes (HaCaT) cell lines were acquired from American Type Culture Collection (ATCC; Manassas, VA). […] The growth media of incubated cells were changed every 2–3 days until they attained 70–80% confluence, after which they were sub-cultured for experiments and re-passaging. DMSO was used as the vehicle to prepare a 10 mM stock solution of the test compounds.
Stock solutions (10 mM) were prepared by dissolving each compound to be screened in DMSO.

mushroom tyrosinase = target: T1, mushroom tyrosinase (Agaricus bisporus, UniProt C7FF04); assay: In vitro mushroom tyrosinase inhibition assay; assay type: biochemical
T1 construct: purchased Sigma-Aldrich Chemical Company (St. Louis, MO) and MP Biomedicals (Irvine, CA)
Experimental: The anti-tyrosinase potential of all the synthesised derivatives was determined by an enzymatic tyrosinase inhibition assay based on their ability to inhibit the substrate, L-tyrosine, from binding to the tyrosinase enzyme. […] Test samples were dissolved in DMSO at a concentration of 10 mM and then diluted to different concentrations with phosphate buffer (0.1 M, pH 6.8). Each well contained 40 µL of the sample with 80 µL of phosphate buffer solution (0.1 M, pH 6.8), 40 µL of tyrosinase enzyme (100 units/mL), and 40 µL L-tyrosine (2.5 mM). The mixture was incubated for 30 min at room temperature, and absorbance was measured at 490 nm. Each sample was accompanied by a sample blank containing all components except tyrosinase. […] The percentage of tyrosinase inhibition was calculated as follows: ((ΔAcontrol – ΔAsample)/ΔAcontrol) × 100. IC50 values denoted the sample concentration required to inhibit 50% tyrosinase activity (Table S1).

SK-MEL-28 [1] = assay: Scratch wound healing assay, SK-MEL-28; assay type: cell-based, human; conditions: 0, ½IC50, IC50, 1½IC50; 48 h; vs untreated control
Experimental: The scratch wound healing assay was performed to evaluate compound P25’s ability to limit cell migration and scratch wound closure following our previously described protocol. Briefly, cells were seeded in wells of a 24-well plate and incubated to 100% confluent monolayer, following which a sterile 200 µL Gilson pipette tip was used to scratch a straight line across the centre. […] The wounded and re-epithelialisation areas were imaged at 0 h, 24 h, and 48 h using an inverted phase-contrast Olympus IX51 microscope (Olympus America Inc., Center Valley, PA) attached to an Infinity 2 digital camera. Images were processed with an Infinity analysis software version 6.5.6 (Teledyne Lumenera, Ottawa, Canada) and analysed with Adobe Photoshop. The ImageJ software (NIH, Bethesda, MD) was used to measure the migratory area of each treatment group, with results expressed as remaining percentage of unfilled wound surface at 0 h[108].

SK-MEL-28 [2] = assay: MTT antiproliferative/cytotoxicity assay, SK-MEL-28; assay type: cell-based, human; conditions: Homo sapiens, SK-MEL-28, 48 h, melanoma, MTT, 48 h; read-out: IC50 SKMEL-28
Experimental: Human-derived GFP-expressing melanoma A375 and epidermoid carcinoma A431 cell lines were purchased from Angio-Proteomie (Boston, MA). Human melanoma carcinoma SK-MEL-28 and human immortalised keratinocytes (HaCaT) cell lines were acquired from American Type Culture Collection (ATCC; Manassas, VA). Human cutaneous SCC cell line SCC-12[192] was generously provided by Dr. James G. Rheinwald to Dr. Tatiana Efimova. Except SK-MEL-28, which was cultured in an RPMI-1640 medium supplemented with 5% FBS, all other human immortalised cell lines were grown and maintained in DMEM containing varying percentages of FBS; 5% FBS for A431, SCC-12, and HaCaT lines, and 10% FBS for A375. All culture media were routinely supplemented with 1% PEST 100X (100 U/mL penicillin, 100 μg/mL streptomycin), and cells were cultured in incubators maintained at 37 °C under an atmosphere of 95% humidity, 20% O2, and 5% CO2. The growth media of incubated cells were changed every 2–3 days until they attained 70–80% confluence, after which they were sub-cultured for experiments and re-passaging. DMSO was used as the vehicle to prepare a 10 mM stock solution of the test compounds.
Stock solutions (10 mM) were prepared by dissolving each compound to be screened in DMSO. From these stock solutions, escalating concentrations were prepared using the corresponding cell growth media as a diluent, and the cells (65–75% confluent) were treated with (0–40 µM) or without the drug in sext- to octuplicate and incubated for 48 h. All treatment protocols and controls were prepared as previously described.
The potency and cytotoxicity of the test compounds against two cutaneous melanoma (A375 and SK-MEL-28) and two non-melanoma (A431 and SCC-12) SC cell lines in addition to a control immortalised normal human epidermal keratinocytes (HaCaT) cell line were assessed by MTT assay as previously described.

SK-MEL-28 [3] = assay: Immunoblotting of apoptosis markers, SK-MEL-28; assay type: cell-based, human; conditions: western blot, 48 h, vs untreated
Experimental: Immunoblotting was performed according to standard procedures of the Bio-Rad electrophoresis system (Bio-Rad, Hercules, CA) as described earlier. Briefly, protein extracts were obtained by lysing cells in RIPA buffer containing protease inhibitors, and were resolved by 4–12% polyacrylamide ready mini-PROTEAN TGX gel electrophoresis with sodium dodecyl sulphate (SDS) running buffer. Gels were electrotransferred to 0.45 μm nitrocellulose membranes (Bio-Rad, Hercules, CA) in Tris-glycine (TG) buffer using a Trans-Blot Turbo Transfer Pack according to manufacturer’s instructions. Membranes were incubated for 1 h in 5–7% non-fat powdered milk dissolved in TBST (Tris-buffered saline containing 0.05% Tween 20) or 5% BSA for phosphorylated proteins, to saturate nonspecific binding sites, followed by an overnight incubation (4 °C) with primary antibodies. Membranes were washed 5× with TBST and treated with suitable HRP-conjugated secondary antibodies (Amersham Life Science Inc., Arlington Height, IL) for another 2 h at room temperature, followed by additional wash steps and chemiluminescence-based detection with the Amersham ECL Prime detection reagent kit and the Bio-Rad Quantity One ChemiDoc™ detection and imaging analysis software systems as described earlier[108]^,[109].

[4] = DPPH free radical scavenging assay
Experimental: An initial screen was done of all 25 derivatives at a concentration of 1 mM. […] Methanol was used as the diluent, and 100 µL of DPPH (200 µM; Sigma-Aldrich, St. Louis, MO) was added to each well. […] The scavenging capacity (SC) was calculated as SC% = ((ΔAcontrol – ΔAsample)/ΔAcontrol) × 100%, where ΔAcontrol was the absorbance of the reagent blank, and ΔAsample was the absorbance of the test samples. The control contained all reagents except the compounds, and all tests were performed in triplicate. Quercetin served as a positive control. The DPPH methanolic solution (1 mL) mixed with DMSO (5 µL) served as a negative control.

T1 sequence (C7FF04 1-392 limits assumed): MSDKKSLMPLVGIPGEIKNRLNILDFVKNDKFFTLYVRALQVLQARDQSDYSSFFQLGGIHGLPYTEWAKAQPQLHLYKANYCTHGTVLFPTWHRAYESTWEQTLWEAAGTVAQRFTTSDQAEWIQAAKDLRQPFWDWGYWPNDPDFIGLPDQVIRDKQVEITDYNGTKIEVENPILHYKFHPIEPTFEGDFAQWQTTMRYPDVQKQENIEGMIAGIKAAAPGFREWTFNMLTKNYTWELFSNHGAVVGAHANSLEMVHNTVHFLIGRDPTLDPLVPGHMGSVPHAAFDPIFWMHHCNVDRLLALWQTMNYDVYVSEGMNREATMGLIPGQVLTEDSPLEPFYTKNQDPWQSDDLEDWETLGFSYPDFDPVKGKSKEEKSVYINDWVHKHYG

O=C1CC(c2ccccc2)=NN1c1ccc(Br)cc1 [P25]
IC50 (GFP-A431): 3.7 ± 0.5 µM | inhibition at 500 µM (mushroom tyrosinase; 500 µM, single-concentration screen, read-out: % Inhibition of tyrosinase): 21.9% | IC50 (mushroom tyrosinase; > 500 = not biologically relevant, read-out: IC50 Value, mushroom tyrosinase inhibition (Table S1)): > 500 µM | scratch wound closure / migration, SK-MEL-28 (SK-MEL-28 [1]): significantly and dose-dependently decreased the scratch wound areas | IC50 (SK-MEL-28 [2]): 7.6 ± 0.6 µM | activated caspase-3, caspase-9 and cleaved PARP levels, SK-MEL-28 (SK-MEL-28 [3]; concentration-dependent): substantially increased levels | anti-apoptotic Bcl-2 protein levels, SK-MEL-28 (SK-MEL-28 [3]): corresponding decreases | pro-apoptotic Bax expression, SK-MEL-28 (SK-MEL-28 [3]): dose-dependent amplified expression | Percent Scavenging (DPPH) ([4]; 1 mM): 77.30% | IC50 ([4]; N.A. = No Activity, > 1000 = not biologically relevant, read-out: IC50 Value, DPPH antioxidant activity (Table S4)): 190 µM

Source: publication PMC10187093, “Synthesis, in silico modelling, and in vitro biological evaluation of substituted pyrazole derivatives as potential anti-skin cancer, anti-tyrosinase, and antioxidant agents” (Journal of Enzyme Inhibition and Medicinal Chemistry, 2023)
